ChEMBL document CHEMBL1135220, “Novel, potent non-covalent thrombin inhibitors incorporating p(3)-lactam scaffolds” (Bioorg Med Chem Lett, 2002)

Tests used:
[1] = Oral bioavailability in dog (fasted); type: ADME, organism-based, Canis lupus familiaris; conditions: in vivo
Trypsin = Trypsin (Homo sapiens, UniProt P07477+P07478+P35030); test: Inhibitory constant against trypsin determined in Vitro; type: protein assay
Coagulation factor X [2] = molecular target: T1, Coagulation factor X (Homo sapiens, UniProt P00742); test: Inhibitory constant against human Coagulation factor Xa determined in Vitro
Prothrombin = Prothrombin (Homo sapiens, UniProt P00734); test: Inhibitory constant against human thrombin (FIIa) determined in vitro
[3] = Half life in dogs at 1 mg/kg oral dosing; 35-100 min; type: ADME, organism-based, Canis lupus familiaris; parameters: dose 1 mg/kg, route oral; conditions: dog, in vivo
[4] = Maximum plasma concentration was determined in dogs at 1 mg/kg oral dosing; 0.05-0.2 ug/mL; type: ADME, organism-based, Canis lupus familiaris; parameters: dose 1 mg/kg, route oral; conditions: dog
[5] = Area Under Curve for the compound was determined in dogs at 1 mg/kg oral dosing; 25-50 ug min/mL; type: ADME, organism-based, Canis lupus familiaris; parameters: dose 1 mg/kg, route oral; conditions: dog, in vivo
Coagulation factor X [6] = molecular target: T1, Coagulation factor X; test: Inhibitory constant against human Coagulation factor Xa determined in Vitro; Inact. means Inactive
Serine protease 1 = Serine protease 1 (Homo sapiens, UniProt P07477); test: Inhibitory constant against trypsin determined in Vitro; Inact. means Inactive
[7] = Maximum plasma concentration was determined as in dogs at 1 mg/kg oral dosing Cmax; 0.05-0.2 ug/mL; type: ADME, organism-based, Canis lupus familiaris; parameters: dose 1 mg/kg, route oral; conditions: dog

T1 sequence (P00742 41-179 limits assumed): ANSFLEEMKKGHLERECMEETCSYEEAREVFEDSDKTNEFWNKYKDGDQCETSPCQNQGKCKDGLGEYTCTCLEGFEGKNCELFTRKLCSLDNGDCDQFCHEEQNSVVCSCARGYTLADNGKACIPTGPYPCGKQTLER
T1 sequence (P00742 235-488 limits assumed): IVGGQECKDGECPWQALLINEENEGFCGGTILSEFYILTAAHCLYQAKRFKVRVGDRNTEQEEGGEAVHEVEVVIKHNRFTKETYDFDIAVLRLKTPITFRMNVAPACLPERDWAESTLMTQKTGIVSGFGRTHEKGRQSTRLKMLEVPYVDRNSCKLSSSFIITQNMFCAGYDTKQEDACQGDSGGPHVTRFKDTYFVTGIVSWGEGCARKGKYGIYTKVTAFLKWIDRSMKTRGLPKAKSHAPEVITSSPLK
Sequence of Serine protease 1 (P07477 whole entry): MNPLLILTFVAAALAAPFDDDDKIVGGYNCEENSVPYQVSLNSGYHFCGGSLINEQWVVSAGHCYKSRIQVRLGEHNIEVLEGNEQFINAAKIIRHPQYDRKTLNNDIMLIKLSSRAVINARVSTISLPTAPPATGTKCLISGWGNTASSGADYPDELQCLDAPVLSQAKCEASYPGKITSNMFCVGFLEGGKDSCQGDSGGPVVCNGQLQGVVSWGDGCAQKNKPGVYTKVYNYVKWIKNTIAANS

SMILES	bioavailability [1] [%]	Ki (Trypsin) [µM]	Ki (Coagulation factor X [2]) [µM]	Ki (Prothrombin) [µM]	half-life [3] [min]	Cmax [4] [ng/mL]	AUC [5] [ng·h/mL]	Ki (Coagulation factor X [6])	Ki (Serine protease 1)	Cmax [7] [ng/mL]
COC(=O)c1ccccc1CS(=O)(=O)N[C@H]1CCCCN(CC(=O)N[C@H](C=O)CCCNC(=N)N)C1=O	67	0.016	–	–	–	–	–	–	–	–
COC(=O)c1ccccc1CS(=O)(=O)N[C@H]1CCCCN(CC(=O)N[C@@H](CCCNC(=N)N)C(=O)O)C1=O	–	–	0.093	0.00095	–	–	–	–	–	–
N=C(N)NCCC[C@@H](C=O)NC(=O)CN1CCCC[C@H](NS(=O)(=O)Cc2ccccc2)C1=O	66	0.018	–	–	–	–	–	–	–	–
N=C(N)NCCC[C@H](NC(=O)CN1CCCC[C@H](NS(=O)(=O)Cc2ccccc2)C1=O)C(=O)O	–	–	0.04	0.00054	–	–	–	–	–	–
N=C(N)c1ccc(CC(=O)CN2CCCC[C@H](NS(=O)(=O)c3ccccc3)C2=O)cc1	–	0.0083	> 0.338	0.0194	~35	~50	~417	–	–	–
N=C(N)c1ccc(CC(=O)CN2CCCC[C@H](NS(=O)(=O)c3ccc4c(c3)CCO4)C2=O)c(F)c1	–	0.0076	> 0.338	0.0298	~35	~50	~417	–	–	–
N=C(N)c1ccc(CC(=O)CN2CCCC[C@H](NS(=O)(=O)c3ccc4c(c3)CCO4)C2=O)s1	–	0.0059	0.0527	0.0006	~35	~50	~417	–	–	–
O=C(Cc1ccc2[nH]ncc2c1)CN1CCCC[C@H](NS(=O)(=O)c2ccc3c(c2)CCO3)C1=O	–	–	–	0.283	~35	~50	~417	Not Active	Not Active	–
COc1ccc(S(=O)(=O)N[C@H]2CCCCN(CC(=O)CC3CCN(C(=N)N)CC3)C2=O)cc1OC	–	> 1.678	> 0.338	0.0857	~35	~50	~417	–	–	–
N=C(N)N1CCC(CC(=O)[C@@H]2Cc3cccc4c3N2C(=O)[C@@H](NS(=O)(=O)c2ccc3c(c2)CCO3)CC4)CC1	–	0.0025	0.0492	0.0108	~35	–	~417	–	–	~50
N[C@H]1CC[C@H](CC(=O)CN2CCCC[C@H](NS(=O)(=O)c3ccc4c(c3)CCO4)C2=O)CC1	–	> 1.678	–	0.0532	~35	~50	~417	Not Active	–	–
N/C(=N\O)c1ccc(CC(=O)CN2CCCC[C@H](NS(=O)(=O)c3ccc4c(c3)CCO4)C2=O)cc1	–	0.0805	–	0.24	~35	~50	~417	Not Active	–	–
COc1ccc(OC)c(S(=O)(=O)N[C@H]2CCCCN(CC(=O)Cc3ccc(C(=N)N)cc3)C2=O)c1	–	0.0352	> 0.338	0.009	~35	~50	~417	–	–	–
N=C(N)N1CCC(CC(=O)CN2CCCC[C@H](NS(=O)(=O)c3ccc4c(c3)CCO4)C2=O)CC1	–	0.8725	–	0.0238	~35	~50	~417	Not Active	–	–
N[C@H]1CC[C@H](CC(=O)CN2CCCC[C@H](NS(=O)(=O)Cc3ccccc3)C2=O)CC1	–	–	–	0.195	~35	~50	~417	Not Active	Not Active	–
Cc1nc(N)ccc1CC(=O)CN1CCCC[C@H](NS(=O)(=O)Cc2ccccc2)C1=O	–	1.678	–	0.0929	~35	~50	~417	Not Active	–	–
N=C(N)c1ccc(CC(=O)CN2CCCC[C@H](NS(=O)(=O)Cc3ccccc3)C2=O)cc1	–	0.0846	0.315	0.0194	~35	~50	~417	–	–	–
N/C(=N\O)c1ccc(CC(=O)CN2C(=O)[C@@H](NS(=O)(=O)c3ccc4c(c3)CCO4)CCc3ccccc32)cc1	–	–	–	> 0.397	~35	~50	~417	Not Active	Not Active	–
N=C(N)c1ccc(CC(=O)CN2C(=O)[C@@H](NS(=O)(=O)c3ccc4c(c3)CCO4)CCc3ccccc32)cc1	–	0.0195	> 0.338	0.0144	~35	~50	~417	–	–	–
COc1ccc(OC)c(S(=O)(=O)N[C@H]2CCCCN(CC(=O)CC3CCN(C(=N)N)CC3)C2=O)c1	–	–	–	0.167	~35	~50	~417	Not Active	Not Active	–
COc1ccc(S(=O)(=O)N[C@H]2CCCCN(CC(=O)Cc3ccc(C(=N)N)cc3)C2=O)cc1OC	–	0.0116	> 0.338	0.0133	~35	~50	~417	–	–	–
Cc1nc(N)ccc1CC(=O)CN1CCC[C@H](NS(=O)(=O)Cc2ccccc2)C1=O	–	> 1.678	–	> 0.397	~35	~50	~417	Not Active	–	–
N=C(N)N1CCC(CC(=O)CN2CCCC[C@H](NS(=O)(=O)c3ccccc3)C2=O)CC1	–	1.678	> 0.338	0.0714	~35	~50	~417	–	–	–
N=C(N)c1ccc(CC(=O)CN2CCCC[C@H](NS(=O)(=O)c3ccc4c(c3)CCO4)C2=O)cc1	–	0.0032	> 0.338	0.0062	~35	~50	~417	–	–	–
N=C(N)c1ccc(CC(=O)CN2CCCC[C@H](NS(=O)(=O)c3ccc4ccccc4c3)C2=O)cc1	–	0.0123	> 0.338	0.163	~35	~50	~417	–	–	–
Cc1nc(N)ccc1CC(=O)CN1CCCC[C@H](NS(=O)(=O)c2ccc3c(c2)CCO3)C1=O	–	1.678	> 0.338	0.0395	~35	~50	~417	–	–	–
N=C(N)N1CCC(CC(=O)CN2C(=O)[C@@H](NS(=O)(=O)c3ccc4c(c3)CCO4)CCc3ccccc32)CC1	–	–	–	0.061	~25	~50	~417	Not Active	Not Active	–
